pIC50: −log10 of the molar value. In brackets after ≈: the same amount, converted by molar mass.
Key:
[1] = biological target: Bromodomain-containing protein 4 (Homo sapiens, UniProt O60885, Y97A)
PBMC = assay: cells; conditions: Homo sapiens, read-out: pIC50 (converted)
Description: Antiinflammatory activity in human PBMC assessed as inhibition of LPS-induced MCP1 release preincubated for 30 mins followed by LPS challenge measured after 24 hrs by immunoassay

[2] = biological target: Bromodomain-containing protein 4 (Homo sapiens, UniProt O60885, Y390A)
physchem = conditions: buffer
Description: Chromatographic hydrophobicity index, log D of the compound at pH 7.4 by HPLC method

[3] = biological target: T1, Bromodomain testis-specific protein (Homo sapiens, UniProt Q58F21); assay: Inhibition of BRDT BD1 (unknown origin) after 30 mins by TR-FRET assay
Blood = assay: Antiinflammatory activity in human whole blood assessed as inhibition of LPS-induced MCP1 release preincubated for 30 mins followed by LPS challenge measured after 24 hrs by immunoassay; assay type: functional, tissue-based
[4] = biological target: T2, Bromodomain-containing protein 2 (Homo sapiens, UniProt P25440); assay: Inhibition of human BRD2 BD1 after 30 mins by TR-FRET assay
[5] = biological target: T3, Bromodomain-containing protein 3 (Homo sapiens, UniProt Q15059); assay: Inhibition of BRD3 BD1 (unknown origin) after 30 mins by TR-FRET assay
Homo sapiens [6] = species: Homo sapiens; assay: Selectivity ratio of IC50 for human BRD2 BD1 to IC50 for human BRD2 BD2
[7] = Permeability of the compound by PAMPA; assay type: ADME; conditions: read-out: permeability
[8] = biological target: T2, Bromodomain-containing protein 2; assay: Inhibition of human BRD2 BD2 after 30 mins by TR-FRET assay
[9] = biological target: T3, Bromodomain-containing protein 3; assay: Inhibition of BRD3 BD2 (unknown origin) after 30 mins by TR-FRET assay
Homo sapiens [10] = species: Homo sapiens; assay: Selectivity ratio of IC50 for BRD3 BD1 (unknown origin) to IC50 for BRD3 BD2 (unknown origin)
[11] = Solubility of the compound in pH 7.4 phosphate buffered saline by chemiluminescent nitrogen detection method; assay type: physicochemical
[12] = Solubility of the compound in FaSSIF at pH 6.5 after 16 hrs by HPLC method; assay type: physicochemical
[13] = biological target: T1, Bromodomain testis-specific protein; assay: Inhibition of BRDT BD2 (unknown origin) after 30 mins by TR-FRET assay
Peregrin = biological target: T4, Peregrin (Homo sapiens, UniProt P55201); assay: Displacement of Alexa 647 ligand from 6H-Flag-Tev-BRPF1 (622 to 738 residues) (unknown origin) expressed in Escherichia coli BL21 (DE3) cells after 30 mins by TR-FRET assay
T4 sequence (P55201 whole entry): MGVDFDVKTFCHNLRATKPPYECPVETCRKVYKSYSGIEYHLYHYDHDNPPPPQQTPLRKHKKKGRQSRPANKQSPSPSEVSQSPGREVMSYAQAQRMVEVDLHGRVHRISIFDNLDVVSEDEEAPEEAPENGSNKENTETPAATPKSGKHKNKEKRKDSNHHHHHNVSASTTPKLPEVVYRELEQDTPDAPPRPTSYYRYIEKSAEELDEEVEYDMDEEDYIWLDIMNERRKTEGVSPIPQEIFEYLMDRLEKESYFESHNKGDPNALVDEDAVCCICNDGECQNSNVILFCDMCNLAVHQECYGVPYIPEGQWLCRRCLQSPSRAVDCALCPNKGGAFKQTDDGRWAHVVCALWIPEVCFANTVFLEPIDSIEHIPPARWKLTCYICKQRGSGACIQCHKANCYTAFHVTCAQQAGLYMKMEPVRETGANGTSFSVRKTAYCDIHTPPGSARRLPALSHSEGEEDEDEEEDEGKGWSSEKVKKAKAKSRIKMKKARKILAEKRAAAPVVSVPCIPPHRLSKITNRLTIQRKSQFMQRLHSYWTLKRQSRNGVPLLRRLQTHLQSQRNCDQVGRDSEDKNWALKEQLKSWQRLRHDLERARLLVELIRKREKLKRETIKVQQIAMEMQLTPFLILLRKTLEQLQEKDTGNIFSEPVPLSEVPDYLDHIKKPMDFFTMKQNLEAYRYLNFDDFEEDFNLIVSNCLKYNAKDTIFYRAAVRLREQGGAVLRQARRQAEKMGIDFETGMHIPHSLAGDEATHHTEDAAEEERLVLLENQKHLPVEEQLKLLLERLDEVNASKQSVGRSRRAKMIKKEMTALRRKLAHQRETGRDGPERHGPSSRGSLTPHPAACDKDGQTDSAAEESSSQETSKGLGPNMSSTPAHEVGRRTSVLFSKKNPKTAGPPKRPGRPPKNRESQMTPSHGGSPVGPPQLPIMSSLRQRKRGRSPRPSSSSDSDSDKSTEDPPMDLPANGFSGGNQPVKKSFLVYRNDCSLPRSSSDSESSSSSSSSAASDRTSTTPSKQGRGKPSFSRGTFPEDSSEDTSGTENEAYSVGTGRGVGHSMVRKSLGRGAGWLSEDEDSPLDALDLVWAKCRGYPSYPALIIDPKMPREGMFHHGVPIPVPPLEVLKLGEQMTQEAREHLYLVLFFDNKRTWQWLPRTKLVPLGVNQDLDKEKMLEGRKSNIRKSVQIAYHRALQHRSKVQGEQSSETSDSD

Homo sapiens [14] = species: Homo sapiens; assay: Selectivity ratio of IC50 for BRDT BD1 (unknown origin) to IC50 for BRDT BD2 (unknown origin)

T2 sequence (P25440 whole entry): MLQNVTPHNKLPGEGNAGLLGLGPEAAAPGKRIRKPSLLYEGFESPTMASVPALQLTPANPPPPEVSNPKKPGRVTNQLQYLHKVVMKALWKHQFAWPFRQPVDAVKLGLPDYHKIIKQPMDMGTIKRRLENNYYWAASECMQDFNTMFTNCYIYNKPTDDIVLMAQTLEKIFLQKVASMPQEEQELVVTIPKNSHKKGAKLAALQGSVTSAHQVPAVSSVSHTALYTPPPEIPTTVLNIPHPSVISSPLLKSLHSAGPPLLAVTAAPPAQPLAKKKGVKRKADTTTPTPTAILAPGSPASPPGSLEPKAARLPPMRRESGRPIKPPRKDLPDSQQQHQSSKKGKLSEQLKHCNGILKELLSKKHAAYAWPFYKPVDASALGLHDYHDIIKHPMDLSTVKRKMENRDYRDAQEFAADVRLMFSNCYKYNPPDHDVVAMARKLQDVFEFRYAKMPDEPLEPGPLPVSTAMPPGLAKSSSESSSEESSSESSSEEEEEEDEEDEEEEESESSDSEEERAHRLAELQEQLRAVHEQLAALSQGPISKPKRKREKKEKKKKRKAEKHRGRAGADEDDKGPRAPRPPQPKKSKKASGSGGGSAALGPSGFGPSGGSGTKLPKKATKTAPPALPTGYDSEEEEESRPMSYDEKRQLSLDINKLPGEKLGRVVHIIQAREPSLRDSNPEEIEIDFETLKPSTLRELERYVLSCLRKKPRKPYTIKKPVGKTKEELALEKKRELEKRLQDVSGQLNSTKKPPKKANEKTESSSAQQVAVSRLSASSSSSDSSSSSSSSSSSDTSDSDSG
T3 sequence (Q15059 whole entry): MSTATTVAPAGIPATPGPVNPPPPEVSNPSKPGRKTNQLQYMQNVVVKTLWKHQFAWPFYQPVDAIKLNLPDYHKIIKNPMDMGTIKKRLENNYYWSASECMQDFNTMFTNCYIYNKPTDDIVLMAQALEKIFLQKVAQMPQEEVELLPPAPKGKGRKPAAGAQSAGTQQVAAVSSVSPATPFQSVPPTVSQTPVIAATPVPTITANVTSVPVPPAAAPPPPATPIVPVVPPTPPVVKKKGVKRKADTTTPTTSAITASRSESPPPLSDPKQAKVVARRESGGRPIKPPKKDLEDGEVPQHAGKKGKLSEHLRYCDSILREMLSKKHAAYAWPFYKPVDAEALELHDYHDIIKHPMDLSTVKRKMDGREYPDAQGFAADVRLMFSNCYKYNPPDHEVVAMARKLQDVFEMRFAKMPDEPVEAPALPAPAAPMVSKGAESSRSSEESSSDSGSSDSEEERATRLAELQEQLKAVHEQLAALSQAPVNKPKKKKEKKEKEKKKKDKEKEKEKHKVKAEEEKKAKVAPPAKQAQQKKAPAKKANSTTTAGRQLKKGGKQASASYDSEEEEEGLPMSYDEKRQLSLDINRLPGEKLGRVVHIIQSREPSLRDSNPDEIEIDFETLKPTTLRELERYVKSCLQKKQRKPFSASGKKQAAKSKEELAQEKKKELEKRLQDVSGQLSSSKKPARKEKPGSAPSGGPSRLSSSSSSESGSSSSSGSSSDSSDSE

SMILES	pIC50 [1]	pIC50 [2]	chromatographic logD (physchem; pH 7.4, logD)	further results
CC(=O)N1c2ccccc2N(Cc2ccccc2)CC1C (centres undefined)	6.30	4.80	5.9	IC50 (PBMC): 1260 nM
CCC1CN(Cc2ccccc2)c2cc(-c3cnoc3)ccc2N1C(C)=O (centres undefined)	6.90	5.80	5.9	–
CC(=O)N1c2ccccc2N(Cc2ccccc2CN)CC1C1CC1 (centres undefined)	6.20	4.70	2.7	–
CCC1CN(Cc2ccccc2)c2cc(Br)ccc2N1C(C)=O (centres undefined)	6.50	5.60	7.4	–
CC(=O)N1c2ccccc2N(Cc2ccccc2O)CC1C1CC1 (centres undefined)	6.30	4.70	5.2	IC50 (PBMC): 1260 nM
CC(=O)N1CCN(Cc2ccccc2C(=O)O)c2ccccc21	5.30	< 4.30	1.2	–
CC(=O)N1c2ccccc2N(Cc2cccc(CO)c2)CC1C1CC1 (centres undefined)	6.10	4.60	4.7	IC50 (PBMC): 631 nM
CCC1CN(Cc2ccccc2)c2cc(C3=CCNCC3)ccc2N1C(C)=O (centres undefined)	6.80	5.50	–	chromatographic logD (physchem; pH 7.4): 2.8
CCC1CN(Cc2ccccc2)c2cc(-c3cn[nH]c3)ccc2N1C(C)=O (centres undefined)	7.30	6.40	4.2	–
CC(=O)N1c2ccccc2N(Cc2ccccc2CO)CC1C1CC1 (racemic)	6.30	4.50	4.9	–
CC(=O)N1c2ccccc2N(Cc2ccccc2C#N)CC1C1CC1 (centres undefined)	5.60	4.60	6	–
CCC1CN(Cc2ccccc2)c2cc(-c3ccc(=O)[nH]c3)ccc2N1C(C)=O (centres undefined)	7.10	6.10	3.5	–
CC(=O)N1c2ccccc2N(Cc2ccccc2)CC1C1CC1 (centres undefined)	6.20	4.70	6.7	IC50 (PBMC): 3160 nM
CCC1CN(Cc2ccccc2)c2cc(C3=CCOCC3)ccc2N1C(C)=O (centres undefined)	6.80	5.80	6.5	–
CCC1CN(Cc2cccc(C)c2)c2ccccc2N1C(C)=O (centres undefined)	6.10	4.90	7.1	–
COc1ccccc1CN1CC(C2CC2)N(C(C)=O)c2ccccc21 (centres undefined)	6.40	4.80	6.9	IC50 (PBMC): 2000 nM
CC(=O)N1c2ccccc2N(Cc2ccccc2C(=O)O)CC1C (centres undefined)	5.80	4.40	1.5	–
CCC1CN(Cc2ccccc2)c2cc(-c3cnc(C#N)nc3)ccc2N1C(C)=O (centres undefined)	7.00	6.60	6.3	–
CC(=O)N1c2ccccc2N(Cc2ccc(Cl)cc2C(=O)O)CC1C1CC1 (centres undefined)	5.90	4.40	2.9	IC50 (PBMC): 12600 nM
CCC1CN(Cc2ccccc2)c2ccccc2N1C(C)=O (centres undefined)	6.20	5.00	6.5	–
CC(=O)N1c2ccccc2N(Cc2cccc(C)c2)CC1C1CC1 (centres undefined)	6.10	4.60	7.2	–
CCC1CN(Cc2ccccc2)c2cc(-c3ccc(C(N)=O)cc3)ccc2N1C(C)=O (centres undefined)	7.30	6.40	4.4	–
CC(=O)N1c2ccccc2N(Cc2ccccc2CO)CC1C1CC1 (single isomer, unassigned; enantiomer 2)	< 4.30	< 4.30	–	–

SMILES	pIC50 [1]	pIC50 [2]	chromatographic logD (physchem; pH 7.4, logD)	further results
CC(=O)N1c2ccccc2N(Cc2ccccc2CC(=O)O)CC1C1CC1 (centres undefined)	6.00	< 4.30	2.4	IC50 (PBMC): 1260 nM
CC(=O)N1c2ccccc2N(Cc2ccccc2C(=O)O)CC1C1CC1 (centres undefined)	6.10	< 4.30	2.2	IC50 (PBMC): 2510 nM
CC(=O)N1c2ccccc2N(Cc2ccccc2OCCO)CC1C1CC1 (centres undefined)	6.50	4.60	4.9	–
COc1cc(OC)c2c(=O)[nH]c(-c3cc(C)c(OCCO)c(C)c3)nc2c1 [APABETALONE]	–	–	2.9	–
CCOC(=O)c1ccccc1CN1CC(C2CC2)N(C(C)=O)c2ccccc21 (centres undefined)	6.00	4.90	7.2	–
CC(=O)N1c2ccccc2N(Cc2cccc(O)c2)CC1C1CC1 (centres undefined)	6.20	4.80	4.9	–
CCC1CN(Cc2ccccc2)c2cc(-c3cncnc3)ccc2N1C(C)=O (centres undefined)	6.80	5.50	4.9	–
CC(=O)N1c2ccc(-c3cnc(C(N)=O)nc3)cc2N(Cc2ccccc2CO)C[C@@H]1C1CC1	7.30	5.70	3	pIC50 [3]: 6.30; pIC50 (Blood): 6.40; pIC50 [4]: 5.80; pIC50 [5]: 6.10; Ratio IC50 (Homo sapiens [6]): 16; IC50 (PBMC): 63.1 nM; Papp [7]: 13.5 ×10⁻⁶ cm/s; pIC50 [8]: 7.00; pIC50 [9]: 7.50; Ratio IC50 (Homo sapiens [10]): 25; solubility [11]: 87 µM (≈ 39.8 µg/mL); solubility at 16 h [12]: 18 µg/mL (≈ 39.3 µM); pIC50 [13]: 7.00; pIC50 (Peregrin): < 4.00; Ratio IC50 (Homo sapiens [14]): 5
CCC1CN(Cc2ccccc2)c2cc(-c3cnc(C)cn3)ccc2N1C(C)=O (centres undefined)	6.90	5.70	6.1	–
CC(=O)N1c2ccc(-c3ccc(C(=O)O)cc3)cc2[C@H](Nc2ccc(Cl)cc2)C[C@@H]1C	–	–	3.9	–
CC(=O)N1CC(C)N(Cc2ccccc2)c2ccccc21 (centres undefined)	5.90	4.50	–	–
CCC1CN(Cc2ccccc2)c2cc(-c3cccc(C(N)=O)c3)ccc2N1C(C)=O (centres undefined)	7.20	6.30	4.7	–
CCC1CN(Cc2ccccc2)c2cc(-c3ccc(C(N)=O)nc3)ccc2N1C(C)=O (centres undefined)	7.20	6.20	4.5	–
CC(=O)N1c2ccccc2N(Cc2ccccc2N(C)C)CC1C1CC1 (centres undefined)	6.30	4.70	7.5	IC50 (PBMC): 1580 nM
CCC1CN(Cc2ccccc2)c2cc(-c3cccnc3)ccc2N1C(C)=O (centres undefined)	7.00	5.80	5.6	–
CCC1CN(Cc2ccccc2)c2cc(-c3cnc(C(N)=O)nc3)ccc2N1C(C)=O (centres undefined)	7.00	5.70	3.6	–
CCC1CN(Cc2ccccc2)c2cc(-c3ccncc3OC)ccc2N1C(C)=O (centres undefined)	6.30	5.30	5.4	–
CC(=O)N1CCN(Cc2cccc(C)c2)c2ccccc21	6.30	4.80	5.9	IC50 (PBMC): 3160 nM
CC(=O)N1c2ccccc2N(Cc2ccccc2C(N)=O)CC1C1CC1 (centres undefined)	5.90	< 4.30	3.9	–
CC(=O)N1CCN(Cc2ccccc2)c2ccccc21	5.60	5.00	5.6	–
CC(=O)N1c2ccccc2N(Cc2cccc(C)c2)CC1C (centres undefined)	6.00	4.70	6.5	–
CC(=O)N1c2ccccc2N(Cc2cc(C)ccc2C(=O)O)CC1C1CC1 (centres undefined)	5.60	< 4.30	2.4	–

From ChEMBL document CHEMBL4184317, “Discovery of Tetrahydroquinoxalines as Bromodomain and Extra-Terminal Domain (BET) Inhibitors with Selectivity for the Second Bromodomain” (J Med Chem, 2018)
